Measured values: patent US20180168208A1 (priority 2014, published 2018)
Where a name gives a salt, the structure may show the parent alone. Read-outs that look alike come from different tables or passages of the source.

What was measured:
T1R1/T1R3 receptor = T1R1/T1R3 receptor (Felis catus, UniProt E3UMS2); test: cell-based; details: for Max resp % of Ala, +IMP (0.2 mM): in the presence of 0.2 mM IMP, relative to alanine; for Thres (mM), +IMP (0.2 mM): threshold concentration in the presence of 0.2 mM IMP
Excerpt: (§1) HEK293 cells that stably express T1R3 and inducibly express T1R1 were exposed to nucleotide derivatives alone to activate the umami receptor. Activation of the T1R1/T1R3 receptor was detected by a change in intracellular calcium levels using a calcium sensitive fluorescent dye. Cells that express T1R3 but not T1R1 were used as a control. A FLIPR® Tetra or a FlexStation® 3 was used for data capture.
as §1, with “alone or in combination with one or more amino acids and/or one or more nucleotides” for “alone”, “dye and/or a luminescent reporter system.” for “dye.”
as §1, with “transmembrane compounds” for “nucleotide derivatives”, “alone or in combination with one or more amino acids and/or one or more nucleotides” for “alone”
In each experiment, serial dilutions of up to 10 mM of the transmembrane compound were added to the T1R1/T1R3-expressing cells.

cat T1R1/T1R3 receptor = target: T1, cat T1R1/T1R3 receptor (Felis catus, UniProt A0ABI7Z2I4); test: cell-based; details: for function as activators of T1R1/T1R3 (in words): in the presence of alanine
T1 sequence (A0ABI7Z2I4 171-420): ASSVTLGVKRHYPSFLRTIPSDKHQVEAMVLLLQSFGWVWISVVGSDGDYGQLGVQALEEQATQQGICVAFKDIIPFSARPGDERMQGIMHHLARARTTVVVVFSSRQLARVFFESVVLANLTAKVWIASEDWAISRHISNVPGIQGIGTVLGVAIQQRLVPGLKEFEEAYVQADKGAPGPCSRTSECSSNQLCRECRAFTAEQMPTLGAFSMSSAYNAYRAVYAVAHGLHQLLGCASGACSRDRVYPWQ
T1 sequence (Q49KI5 25-865 E206Q/N523D/F654L partner): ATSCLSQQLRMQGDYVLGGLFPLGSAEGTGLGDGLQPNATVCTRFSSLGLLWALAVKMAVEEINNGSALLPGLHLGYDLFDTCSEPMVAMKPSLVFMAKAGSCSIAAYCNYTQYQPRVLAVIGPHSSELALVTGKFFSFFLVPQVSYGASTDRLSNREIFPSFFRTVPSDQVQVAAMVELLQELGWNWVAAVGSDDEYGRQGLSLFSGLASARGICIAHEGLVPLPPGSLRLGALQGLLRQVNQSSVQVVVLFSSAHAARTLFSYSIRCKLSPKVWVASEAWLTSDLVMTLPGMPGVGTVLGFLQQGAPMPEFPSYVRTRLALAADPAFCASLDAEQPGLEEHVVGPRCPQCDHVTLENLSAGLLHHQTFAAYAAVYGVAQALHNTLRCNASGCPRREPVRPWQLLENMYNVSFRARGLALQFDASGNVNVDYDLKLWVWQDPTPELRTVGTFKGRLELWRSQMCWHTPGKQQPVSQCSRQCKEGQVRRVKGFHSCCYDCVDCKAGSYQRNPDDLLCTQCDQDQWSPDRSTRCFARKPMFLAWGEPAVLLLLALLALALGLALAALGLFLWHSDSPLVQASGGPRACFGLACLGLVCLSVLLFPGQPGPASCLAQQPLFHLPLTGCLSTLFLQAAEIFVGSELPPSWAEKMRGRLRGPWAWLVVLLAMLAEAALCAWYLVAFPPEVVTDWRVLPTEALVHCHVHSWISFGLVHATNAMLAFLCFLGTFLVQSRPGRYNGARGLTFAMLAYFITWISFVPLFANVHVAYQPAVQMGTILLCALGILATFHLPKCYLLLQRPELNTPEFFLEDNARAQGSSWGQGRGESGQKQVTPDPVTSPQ
Excerpt: as §1, with “alone or in combination with one or more amino acids and/or one or more nucleotides” for “alone”, “dye and/or a luminescent reporter system.” for “dye.”

[1] = threshold amount that results in activation of T1R1/T1R3, 20 mM alanine

| Compound | Threshold (cat T1R1/T1R3 receptor) [mM] | Activity (cat T1R1/T1R3 receptor) | EC50 (cat T1R1/T1R3 receptor) [µM] | further results |
| --- | --- | --- | --- | --- |
| O=C(O)C1CCCCC1C(=O)Nc1cc(Cl)cc(Cl)c1 (centres unmarked) | – | – | – | EC50 (T1R1/T1R3 receptor): 0.49 ± 0.01 mM; EC50 (T1R1/T1R3 receptor; T1R1/T1R3 EC50 +0.2 mM IMP, +0.2 mM IMP): 0.18 ± 0.01 mM; EC50 (T1R1/T1R3 receptor; alone in buffer, read-out: T1R1/T1R3 EC50 alone in buffer): 0.37 ± 0.05 mM |
| CC(C)CC(NC(=O)c1ccccc1)C(N)=O (racemic) | – | – | – | Max resp % of IMP, +Alanine (20 mM) (T1R1/T1R3 receptor): 125.5%; Thres (mM), +Alanine (20 mM) (T1R1/T1R3 receptor): 0.3 mM; EC50 (T1R1/T1R3 receptor; EC50 (mM), +Alanine (20 mM) + IMP (0.2 mM), in the presence of 20 mM alanine and 0.2 mM IMP): 0.91 mM; Max resp % of Ala, +IMP (0.2 mM) (T1R1/T1R3 receptor): 204.5%; Thres (mM), +IMP (0.2 mM) (T1R1/T1R3 receptor): 0.1 mM |
| O=C(O)C1CCCCC1C(=O)Nc1cc(Cl)cc(Cl)c1 (centres unmarked) [2-((3,5-dichlorophenyl)carbamoyl)cyclohexanecarboxylic acid] | – | – | – | Max resp % of IMP, +Alanine (20 mM) (T1R1/T1R3 receptor): 163.5%; Thres (mM), +Alanine (20 mM) (T1R1/T1R3 receptor): 0.1 mM; Max resp % of Ala, +IMP (0.2 mM) (T1R1/T1R3 receptor): 157.9%; Thres (mM), +IMP (0.2 mM) (T1R1/T1R3 receptor): 0.03 mM |
| Nc1nc2c(ncn2[C@@H]2O[C@H](COP(=O)(O)O)[C@@H](O)[C@H]2O)c(=S)[nH]1 [6-Thiogaunosine-5′-O-monophosphate] | – | – | – | Max resp. (ΔF/F) (cat T1R1/T1R3 receptor): 1.3614 ΔF/F; Max. resp. % of IMP (cat T1R1/T1R3 receptor): 140.6 % of IMP |
| Nc1nc2c(ncn2[C@@H]2O[C@H](COP(=O)(O)OP(=O)(O)O)[C@@H](O)[C@H]2O)c(=S)[nH]1 [6-Thioguanosine-5′-O-disphosphate] | 0.03 | – | – | – |
| Nc1nc2c(ncn2[C@@H]2O[C@H](COP(=O)(O)O)[C@@H](O)[C@H]2O)c(=S)[nH]1 [6-Thioguanosine-5′-O-monophosphate] | – | active | – | – |
| O=P(O)(O)OCC1OC(n2cnc3c(Cl)ncnc32)C(O)C1O (centres unmarked) [6-chloropurineriboside-5′-O-monophosphate] | 0.0005 | – | 2 | function as activators of T1R1/T1R3 (in words) (cat T1R1/T1R3 receptor): activators of the T1R1/T1R3 receptor |
| Nc1nc2c(ncn2[C@@H]2O[C@H](COP(=O)(O)O)[C@@H](O)[C@H]2O)c(=S)[nH]1 [6-thioguanosine-5′-O-monophosphate] | 0.0002 | – | 0.9 | function as activators of T1R1/T1R3 (in words) (cat T1R1/T1R3 receptor): activators of T1R1/T1R3 |
| Nc1nc2c(nc(Br)n2[C@@H]2O[C@H](COP(=O)(O)O)[C@@H](O)[C@H]2O)c(=O)[nH]1 [8-Bromoguanosine-5′-O-monophosphate] | 1 | active | – | Max resp. (ΔF/F) (cat T1R1/T1R3 receptor): 0.375 ΔF/F; Max. resp. % of IMP (cat T1R1/T1R3 receptor): 30.2 % of IMP |
| Nc1ncnc2c1nc(Cl)n2[C@@H]1O[C@H](COP(=O)(O)O)C(O)C1O (some centres unmarked) [8-Chloroadenosine-5′-O-monophosphate] | 0.2 | – | – | Max resp. (ΔF/F) (cat T1R1/T1R3 receptor): 0.79 ΔF/F; Max. resp. % of IMP (cat T1R1/T1R3 receptor): 63.6 % of IMP; Activity (cat T1R1/T1R3 receptor; +Alanine (20 mM)): active |
| Nc1ncnc2c1ncn2C1OC(COP(=O)(O)O)C(OP(=O)(O)O)C1O (centres unmarked) [Adenosine 3′,5′-diphosphate sodium salt, adenosine 3′, 5′ diphosphate sodium salt] | 0.00025 | active | – | – |
| Nc1ncnc2c1ncn2C1OC(COP(=O)(O)OS(=O)(=O)O)C(O)C1O (centres unmarked) [Adenosine 5′-phosphosulfate sodium salt, Adenosine 5′-phosphosulfate] | 0.008 | – | – | – |
| Nc1ncnc2c1ncn2[C@@H]1O[C@H](COP(O)(O)=S)[C@@H](O)[C@H]1O [Adenosine-5′-O-monophosphorothioate] | 0.003 | active | 11 | – |
| Nc1nc2c(ncn2[C@@H]2O[C@H](COP(=O)(O)OP(=O)(O)O)[C@@H](O)[C@H]2O)c(=O)[nH]1 [Guanosine 5′-diphosphate sodium salt, Guanosine 5′-diphosphate] | 0.050 | active | 200 | – |
| Nc1nc2c(ncn2C2OC(COP(=O)(O)N3CCOCC3)C(O)C2O)c(=O)[nH]1 (centres unmarked) [Guanosine 5′-monophosphomorpholidate 4-morpholine-N,N′-dicyclohexylcarboxamidine salt] | – | – | – | Activity (cat T1R1/T1R3 receptor; +Alanine (20 mM)): active; Max. resp. % of IMP (cat T1R1/T1R3 receptor; maximum response in relation to the response with IMP, 20 mM alanine): 52.9 % of IMP; Max resp. (ΔF/F) (cat T1R1/T1R3 receptor; maximum response of the receptor, 20 mM alanine): 0.5121 ΔF/F; Threshold (cat T1R1/T1R3 receptor; [1]): 0.325 mM |
| Nc1nc2c(ncn2[C@@H]2O[C@H](COP(=O)(O)OP(=O)(O)OP(=O)(O)O)[C@@H](O)[C@H]2O)c(=O)[nH]1 [Guanosine 5′-triphosphate] | 0.175 | active | 700 | Max resp. (ΔF/F) (cat T1R1/T1R3 receptor): 1.8075 ΔF/F; Max. resp. % of IMP (cat T1R1/T1R3 receptor): 145.5 % of IMP |
| Nc1nc2c(ncn2[C@@H]2O[C@H](COP(O)(O)=S)[C@@H](O)[C@H]2O)c(=O)[nH]1 [Guanosine-5′-monophosphorothioate] | 0.0025 | active | 10 | Max resp. (ΔF/F) (cat T1R1/T1R3 receptor): 1.29 ΔF/F; Max. resp. % of IMP (cat T1R1/T1R3 receptor): 103.8 % of IMP; function as activators of T1R1/T1R3 (in words) (cat T1R1/T1R3 receptor): activators of T1R1/T1R3 |
| O=c1[nH]cnc2c1ncn2C1OC(COP(=O)(O)OP(=O)(O)O)C(O)C1O (centres unmarked) [Inosine 5′-diphosphate (IDP) sodium salt, inosine 5′-diphosphate (IDP) sodium salt] | – | active | – | Max resp. (ΔF/F) (cat T1R1/T1R3 receptor): 0.3 ΔF/F; Max. resp. % of IMP (cat T1R1/T1R3 receptor): 33.3 % of IMP; Threshold (cat T1R1/T1R3 receptor; [1]): 0.1625 mM |
| CNc1ncnc2c1ncn2[C@H]1C[C@H](OP(=O)(O)O)[C@@H](COP(=O)(O)O)O1 [MRS 2179 ammonium salt hydrate, 2′-Deoxy-N^6-methyl adenosine 3,5′-diphosphate diammonium salt] | – | active | – | – |
| O=P(O)(O)OC[C@H]1O[C@@H](n2cnc3c(NC4CCCC4)ncnc32)[C@H](O)[C@@H]1O [N6-Cyclopentyladenosine-5′-O-monophosphate] | 0.013 | active | – | – |
| CNc1ncnc2c1ncn2[C@@H]1O[C@H](COP(=O)(O)O)[C@@H](O)[C@H]1O [N6-Methyladenosine 5′-monophosphate] | 0.020 | – | – | Activity (cat T1R1/T1R3 receptor; +Alanine (20 mM)): active |
| O=P(O)(O)OC[C@H]1O[C@@H](n2cnc3cncnc32)[C@H](O)[C@@H]1O [Purine riboside-5′-O-monophosphate, reference compound] | 0.005 | active | – | – |
| NC(=O)c1ncn(C2OC(COP(=O)(O)O)C(O)C2O)n1 (centres unmarked) [Ribavirin 5′-Monophosphate] | 0.175 | active | – | – |
| O=c1ccn([C@@H]2O[C@H](COP(=O)(O)O)[C@@H](O)[C@H]2O)c(=O)[nH]1 [UMP, uridine monophosphate, reference compound] | – | – | > 30000 | – |
| Nc1ncnc2c1ncn2[C@@H]1O[C@H](COP(=O)(O)O)[C@@H](O)[C@H]1O [adenosine monophosphate (AMP), adenosine monophosphate, reference compound] | – | – | 11 | – |
| Nc1ncnc2c1ncn2[C@@H]1O[C@H](COP(=O)(O)O)[C@@H](O)[C@H]1O [adenosine monophosphate] | 0.003 | active | – | – |
| O=P(O)(O)OP(=O)(O)OP(=O)(O)OC[C@H]1O[C@@H](n2cnc3c(O)ncnc32)[C@H](O)[C@@H]1O [inosine triphosphate (ITP), inosine triphosphate] | – | – | 80 | – |
| O=c1[nH]c(=O)c2ncn([C@@H]3O[C@H](COP(=O)(O)O)[C@@H](O)[C@H]3O)c2[nH]1 [xanthosine monophosphate] | 0.025 | active | – | – |
